Key:
human TLR8 = human TLR8 (Homo sapiens (Human), UniProt Q9NR97); assay: HEK-Blue human TLR8 cells NF-κB SEAP reporter assay; type: cell-based; conditions: stimulation for 20 hours
Text: (§1) For TLR8 and TLR7 activity testing, HEK-Blue human TLR8 or TLR7 cells (Invivogen, San Diego, Calif., USA) are used, respectively. These cells are designed for studying the stimulation of human TLR8 or TLR7 by monitoring the activation of NF-κB. A SEAP (secreted embryonic alkaline phosphatase) reporter gene is placed under the control of the IFN-b minimal promoter fused to five NF-κB and AP-1-binding sites. Therefore the reporter expression is regulated by the NF-κB promoter upon stimulation of human TLR8 or TLR7 for 20 hours. The cell culture supernatant SEAP reporter activity was determined using Quanti Blue kit (Invivogen, San Diego, Ca, USA) at a wavelength of 640 nm, a detection medium that turns purple/blue in the presence of alkaline phosphatase. EC50 values were determined using Activity Base analysis (ID Business Solution, Limited).

human TLR7 = human TLR7 (Homo sapiens (Human), UniProt Q9NYK1); assay: HEK-Blue human TLR7 cells NF-κB SEAP reporter assay; type: cell-based; conditions: stimulation for 20 hours
Text: as §1

Sequence of human TLR7 (Q9NYK1 27-1049): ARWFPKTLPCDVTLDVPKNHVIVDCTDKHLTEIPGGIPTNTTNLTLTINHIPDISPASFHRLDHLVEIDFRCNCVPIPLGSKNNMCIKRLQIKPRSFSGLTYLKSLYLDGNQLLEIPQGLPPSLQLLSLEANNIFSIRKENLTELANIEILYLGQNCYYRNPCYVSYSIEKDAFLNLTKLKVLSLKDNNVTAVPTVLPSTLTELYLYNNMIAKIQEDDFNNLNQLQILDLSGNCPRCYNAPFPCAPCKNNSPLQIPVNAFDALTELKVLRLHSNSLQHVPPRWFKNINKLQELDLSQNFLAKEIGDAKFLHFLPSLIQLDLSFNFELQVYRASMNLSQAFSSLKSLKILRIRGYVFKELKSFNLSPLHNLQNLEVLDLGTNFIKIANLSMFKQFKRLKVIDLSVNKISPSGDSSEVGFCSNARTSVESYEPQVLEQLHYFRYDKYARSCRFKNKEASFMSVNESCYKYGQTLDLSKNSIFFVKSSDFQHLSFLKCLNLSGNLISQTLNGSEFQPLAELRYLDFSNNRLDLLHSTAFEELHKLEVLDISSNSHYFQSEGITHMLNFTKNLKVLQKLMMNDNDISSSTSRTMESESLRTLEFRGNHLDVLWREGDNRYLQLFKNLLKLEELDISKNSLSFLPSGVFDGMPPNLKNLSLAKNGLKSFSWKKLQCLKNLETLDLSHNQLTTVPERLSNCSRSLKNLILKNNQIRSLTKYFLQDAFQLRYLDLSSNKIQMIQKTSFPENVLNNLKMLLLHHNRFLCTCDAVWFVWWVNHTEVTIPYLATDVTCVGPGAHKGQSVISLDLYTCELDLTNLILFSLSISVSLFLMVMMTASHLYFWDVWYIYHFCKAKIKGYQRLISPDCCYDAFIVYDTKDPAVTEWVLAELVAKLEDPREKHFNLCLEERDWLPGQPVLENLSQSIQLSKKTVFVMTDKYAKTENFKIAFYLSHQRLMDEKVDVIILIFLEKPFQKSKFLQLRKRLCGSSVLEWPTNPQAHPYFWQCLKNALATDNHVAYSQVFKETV
Sequence of human TLR8 (Q9NR97 27-1041): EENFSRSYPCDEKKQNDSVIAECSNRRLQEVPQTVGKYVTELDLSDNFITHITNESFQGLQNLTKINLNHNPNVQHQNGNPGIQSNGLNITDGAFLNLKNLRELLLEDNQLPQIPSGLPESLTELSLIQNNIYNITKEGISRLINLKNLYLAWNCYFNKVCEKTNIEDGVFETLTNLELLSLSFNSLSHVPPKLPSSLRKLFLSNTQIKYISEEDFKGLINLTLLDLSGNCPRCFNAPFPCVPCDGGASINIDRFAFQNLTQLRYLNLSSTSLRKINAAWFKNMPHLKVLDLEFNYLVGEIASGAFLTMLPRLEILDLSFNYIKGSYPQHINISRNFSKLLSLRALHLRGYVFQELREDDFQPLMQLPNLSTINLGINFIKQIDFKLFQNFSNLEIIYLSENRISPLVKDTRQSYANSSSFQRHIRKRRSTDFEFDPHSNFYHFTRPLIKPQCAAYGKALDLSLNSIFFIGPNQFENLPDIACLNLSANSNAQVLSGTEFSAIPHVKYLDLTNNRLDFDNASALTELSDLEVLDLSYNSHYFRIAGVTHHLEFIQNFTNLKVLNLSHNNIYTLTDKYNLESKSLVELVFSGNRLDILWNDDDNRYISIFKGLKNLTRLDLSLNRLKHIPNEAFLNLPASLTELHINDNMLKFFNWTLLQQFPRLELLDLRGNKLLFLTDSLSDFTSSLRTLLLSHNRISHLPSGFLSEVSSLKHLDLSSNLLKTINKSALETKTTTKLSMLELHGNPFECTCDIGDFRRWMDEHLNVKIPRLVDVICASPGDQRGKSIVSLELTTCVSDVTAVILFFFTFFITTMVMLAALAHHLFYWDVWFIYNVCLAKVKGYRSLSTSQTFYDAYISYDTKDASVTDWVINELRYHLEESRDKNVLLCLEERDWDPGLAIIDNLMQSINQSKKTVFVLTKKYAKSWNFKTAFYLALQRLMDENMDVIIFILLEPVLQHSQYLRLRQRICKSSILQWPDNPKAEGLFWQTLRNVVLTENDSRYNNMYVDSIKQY

Question: What does the source list for CCCN(CCC)C(=O)C1=Cc2ccc(C(=O)N3CCN(Cc4ccccc4)CC3)cc2N=C(N)C1 [Example 10, 2-Amino-8-(4-benzylpiperazine-1-carbonyl)-N,N-dipropyl-3H-1-benzazepine-4-carboxamide]?
Answer: EC50 (human TLR8): 5 nM; EC50 (human TLR7): 14000 nM

Question: What does the source list for CCCN(CCC)C(=O)C1=Cc2ccc(C(=O)N3CC4CN(c5ccccc5)C4C3)cc2N=C(N)C1 (stereo not drawn) [Example 16, 2-Amino-8-(6-phenyl-3,6-diazabicyclo[3.2.0]heptane-3-carbonyl)-N,N-dipropyl-3H-1-benzazepine-4-carboxamide]?
Answer: EC50 (human TLR8): 29 nM; EC50 (human TLR7): 12000 nM

Question: Which EC50 (human TLR8) does the source give for CCCN(CCC)C(=O)C1=Cc2ccc(C(=O)N3CC4CCC(C3)N4c3ccccc3)cc2N=C(N)C1 [Example 15, 2-Amino-8-(8-phenyl-3,8-diazabicyclo[3.2.1]octane-3-carbonyl)-N,N-dipropyl-3H-1-benzazepine-4-carboxamide] here?
Answer: Its EC50 is 10 nM.

Question: What about the EC50 (human TLR7) of the same molecule?
Answer: The EC50 was 16000 nM.

Question: What does the source list for CCCN(CCC)C(=O)C1=Cc2ccc(C(=O)N3CC(CNc4ccccc4)C3)cc2N=C(N)C1 [Example 4, 2-Amino-8-[3-(anilinomethyl)azetidine-1-carbonyl]-N,N-dipropyl-3H-1-benzazepine-4-carboxamide]?
Answer: EC50 (human TLR8): 10 nM; EC50 (human TLR7): 10000 nM

Question: With C/C=C/COC1CN(C(=O)c2ccc3c(c2)N=C(N)CC(C(=O)N(CCC)CCC)=C3)C1 [Example 22, 2-Amino-8-[3-[(E)-but-2-enoxy]azetidine-1-carbonyl]-N,N-dipropyl-3H-1-benzazepine-4-carboxamide] as the molecule, how does the EC50 (human TLR8) read?
Answer: Its EC50 is 12 nM.

Question: What about the EC50 (human TLR7) of the same molecule?
Answer: The EC50 was 32000 nM.

Question: For CCCN(CCC)C(=O)C1=Cc2ccc(C(=O)N3CCC(Nc4ccccc4)C3)cc2N=C(N)C1 (stereo not drawn) [Example 5, 2-Amino-8-(3-anilinopyrrolidine-1-carbonyl)-N,N-dipropyl-3H-1-benzazepine-4-carboxamide], which EC50 (human TLR8) is on record?
Answer: The EC50 was 4 nM.

Question: What about the EC50 (human TLR7) of the same molecule?
Answer: Its EC50 is 14000 nM.

Question: Which results are given for CCCN(CCC)C(=O)C1=Cc2ccc(C(=O)N3CC4CC(C3)N4c3ccccc3)cc2N=C(N)C1 [Example 12, 2-Amino-8-(6-phenyl-3,6-diazabicyclo[3.1.1]heptane-3-carbonyl)-N,N-dipropyl-3H-1-benzazepine-4-carboxamide]?
Answer: EC50 (human TLR8): 22 nM; EC50 (human TLR7): 11000 nM

Question: Which results are given for CCCN(CCC)C(=O)C1=Cc2ccc(C(=O)N3CCN(c4ccccc4)CC3)cc2N=C(N)C1 [Example 6, 2-Amino-8-(4-phenylpiperazine-1-carbonyl)-N,N-dipropyl-3H-1-benzazepine-4-carboxamide]?
Answer: EC50 (human TLR8): 25 nM; EC50 (human TLR7): 9000 nM

Question: Which results are given for CCCCOC1CN(C(=O)c2ccc3c(c2)N=C(N)CC(C(=O)N(CCC)CCC)=C3)C1 [Example 25, 2-Amino-8-(3-butoxyazetidine-1-carbonyl)-N,N-dipropyl-3H-1-benzazepine-4-carboxamide]?
Answer: EC50 (human TLR8): 8 nM; EC50 (human TLR7): 31100 nM

Question: CCCN(CCC)C(=O)C1=Cc2ccc(C(=O)N3CC(NCc4ccccc4)C3)cc2N=C(N)C1 [Example 17, 2-Amino-8-[3-(benzylamino)azetidine-1-carbonyl]-N,N-dipropyl-3H-1-benzazepine-4-carboxamide] was tested. Which EC50 (human TLR8) did it give?
Answer: The EC50 was 18 nM.

Question: And the EC50 (human TLR7)?
Answer: The EC50 was 17000 nM.

Question: What does the source list for CCCN(CCC)C(=O)C1=Cc2ccc(C(=O)N3CCC(NCc4ccccc4)C3)cc2N=C(N)C1 (stereo not drawn) [Example 19, 2-Amino-8-[3-(benzylamino)pyrrolidine-1-carbonyl]-N,N-dipropyl-3H-1-benzazepine-4-carboxamide]?
Answer: EC50 (human TLR8): 14 nM; EC50 (human TLR7): 6600 nM

Question: For CCCN(CCC)C(=O)C1=Cc2ccc(C(=O)N3CCC4(CC3)CN(c3ccccc3)C4)cc2N=C(N)C1 [Example 13, 2-Amino-8-(2-phenyl-2,7-diazaspiro[3.5]nonane-7-carbonyl)-N,N-dipropyl-3H-1-benzazepine-4-carboxamide], which EC50 (human TLR8) is on record?
Answer: Its EC50 is 7 nM.

Question: What about the EC50 (human TLR7) of the same molecule?
Answer: Its EC50 is greater than 100000 nM.

Question: For CCCN(CCC)C(=O)C1=Cc2ccc(C(=O)N3CC4(CCN(c5ccccc5)C4)C3)cc2N=C(N)C1 [Example 7, 2-Amino-8-(7-phenyl-2,7-diazaspiro[3.4]octane-2-carbonyl)-N,N-dipropyl-3H-1-benzazepine-4-carboxamide], which EC50 (human TLR8) is on record?
Answer: Its EC50 is 10 nM.

Question: What about the EC50 (human TLR7) of the same molecule?
Answer: Its EC50 is greater than 100000 nM.

Question: Which EC50 (human TLR8) does the source give for CCCN(CCC)C(=O)C1=Cc2ccc(C(=O)N3CCC(Nc4ccccc4)CC3)cc2N=C(N)C1 [Example 2, 2-Amino-8-(4-anilinopiperidine-1-carbonyl)-N,N-dipropyl-3H-1-benzazepine-4-carboxamide] here?
Answer: Its EC50 is 6 nM.

Question: And the EC50 (human TLR7)?
Answer: Its EC50 is 7900 nM.

Question: CCCN(CCC)C(=O)C1=Cc2ccc(C(=O)N3CCCC(NCc4ccccc4)C3)cc2N=C(N)C1 (stereo not drawn) [Example 24, 2-Amino-8-[3-(benzylamino)piperidine-1-carbonyl]-N,N-dipropyl-3H-1-benzazepine-4-carboxamide] was tested. Which EC50 (human TLR8) did it give?
Answer: Its EC50 is 14 nM.

Question: What about the EC50 (human TLR7) of the same molecule?
Answer: Its EC50 is 3100 nM.

Question: How did the EC50 (human TLR8) turn out when CCCN(CCC)C(=O)C1=Cc2ccc(C(=O)N3CC4(C3)CN(c3ccc(C)cc3)C4)cc2N=C(N)C1 [Example 1, 2-Amino-N,N-dipropyl-8-[6-(p-tolyl)-2,6-diazaspiro[3.3]heptane-2-carbonyl]-3H-1-benzazepine-4-carboxamide] was run?
Answer: The EC50 was 5 nM.

Question: What about the EC50 (human TLR7) of the same molecule?
Answer: The EC50 was greater than 100000 nM.

Question: Which results are given for CCCN(CCC)C(=O)C1=Cc2ccc(C(=O)N3CC4(CCN(c5ccccc5)CC4)C3)cc2N=C(N)C1 [Example 14, 2-Amino-8-(7-phenyl-2,7-diazaspiro[3.5]nonane-2-carbonyl)-N,N-dipropyl-3H-1-benzazepine-4-carboxamide]?
Answer: EC50 (human TLR8): 9 nM; EC50 (human TLR7): 33000 nM

Question: For CCCN(CCC)C(=O)C1=Cc2ccc(C(=O)N3CCCC(Nc4ccccc4)C3)cc2N=C(N)C1 (stereo not drawn) [Example 23, 2-Amino-8-(3-anilinopiperidine-1-carbonyl)-N,N-dipropyl-3H-1-benzazepine-4-carboxamide], which EC50 (human TLR8) is on record?
Answer: Its EC50 is 8 nM.

Question: And the EC50 (human TLR7)?
Answer: Its EC50 is 400 nM.

Question: What does the source list for CCCN(CCC)C(=O)C1=Cc2ccc(C(=O)N3CCC(CNc4ccccc4)CC3)cc2N=C(N)C1 [Example 20, 2-amino-8-[4-(anilinomethyl)piperidine-1-carbonyl]-N,N-dipropyl-3H-1-benzazepine-4-carboxamide]?
Answer: EC50 (human TLR8): 20 nM; EC50 (human TLR7): 10000 nM

Question: CCCN(CCC)C(=O)C1=Cc2ccc(C(=O)N3CCC(CNc4ccccc4)C3)cc2N=C(N)C1 (stereo not drawn) [Example 21, 2-Amino-8-[3-(anilinomethyl)pyrrolidine-1-carbonyl]-N,N-dipropyl-3H-1-benzazepine-4-carboxamide] was tested. Which EC50 (human TLR8) did it give?
Answer: The EC50 was 9 nM.

Question: What about the EC50 (human TLR7) of the same molecule?
Answer: The EC50 was 6980 nM.

Question: With CCCN(CC1CC1)C(=O)C1=Cc2ccc(C(=O)N3CCC(Nc4ccccc4)CC3)cc2N=C(N)C1 [Example 9, 2-Amino-8-(4-anilinopiperidine-1-carbonyl)-N-(cyclopropylmethyl)-N-propyl-3H-1-benzazepine-4-carboxamide] as the molecule, how does the EC50 (human TLR8) read?
Answer: The EC50 was 20 nM.

Question: And the EC50 (human TLR7)?
Answer: The EC50 was 18000 nM.

Question: Which EC50 (human TLR8) does the source give for CCCN(CCC)C(=O)C1=Cc2ccc(C(=O)N3CCC(Nc4ccc(CN)cc4)C3)cc2N=C(N)C1 (stereo not drawn) [Example 18, 2-Amino-8-[3-[4-(aminomethyl)anilino]pyrrolidine-1-carbonyl]-N,N-dipropyl-3H-1-benzazepine-4-carboxamide] here?
Answer: Its EC50 is 31 nM.

Question: And the EC50 (human TLR7)?
Answer: Its EC50 is greater than 100000 nM.

Question: CCCN(CCC)C(=O)C1=Cc2ccc(C(=O)N3CC(Nc4ccccc4)C3)cc2N=C(N)C1 [Example 3, 2-Amino-8-(3-anilinoazetidine-1-carbonyl)-N,N-dipropyl-3H-1-benzazepine-4-carboxamide] was tested. Which EC50 (human TLR8) did it give?
Answer: The EC50 was 5 nM.

Question: And the EC50 (human TLR7)?
Answer: Its EC50 is 24000 nM.

Question: Which results are given for CCCN(CCC)C(=O)C1=Cc2ccc(C(=O)N3CCCC3)cc2N=C(N)C1 [Example 8, 2-Amino-N,N-dipropyl-8-(pyrrolidine-1-carbonyl)-3H-1-benzazepine-4-carboxamide]?
Answer: EC50 (human TLR8): 15 nM; EC50 (human TLR7): 21000 nM

From patent publication US10370338B2, “Benzazepine dicarboxamide compounds with tertiary amide function” (Hoffmann-La Roche Inc., priority 2016, dated 2019)
